Data: patent US4555522A, “Antithrombotic and/or antihypertensive compositions” (T & R Chemicals, Inc., priority 1983, dated 1985)
Like-named read-outs stand apart in the source and are kept apart here.

Assays:
[1] = test system: platelet aggregation in platelet-rich plasma (PRP); assay: In vitro inhibition of platelet aggregation, method of Born; type: cell-based; conditions: Oryctolagus cuniculus, read-out: IC50 of diethyl sulphite
Method: (§1) In order to evaluate the effectiveness of diethyl sulphite as an anti-platelet aggregatory agent the following experiments are carried out.
(A) In vitro Platelet-rich plasma (PRP) is prepared from a rabbit and the IC50 value is determined according to the method of Born, "Nature", 194, 927-929 (1962). The IC50 is the estimated concentration of the agent necessary to inhibit 50 percent of the platelet aggregation. The data tabulated below is obtained.

hypertensive disorders = assay: Treatment of hypertensive disorders in rats; type: in vivo, rat; conditions: aqueous suspension, e.g. 0.5 to 2.5 millimolar
Method: (§2) Dimethyl sulphite and diethyl sulphite are successively prepared by esterifying 2 moles of each respective alkanol with 1 mole of thionyl chloride. The diethyl ester is a colourless liquid (b.p. 159°) with an aromatic odour, believed to have the following formula: [drawing 17] A composition based on this compound, e.g. an aqueous suspension having a concentration in the range from 0.5 to 2.5 millimolar, is effective in the treatment of thrombotic and hypertensive disorders in rats. It is theorized to be activated in vivo by virtue of its conversion to sulphite ions.

platelet aggregation = assay: Ex vivo inhibition of platelet aggregation after injection into a rabbit; conditions: 219 mg injected, 3.06 kg rabbit, about 10 millimolar in blood, 10 minutes
Method: as §1
(B) Ex vivo A rabbit weighing 3.06 kg is injected with 219 mg of diethyl sulphite to give a concentration of about 10 millimolar diethyl sulphite in the blood. After 10 minutes, a blood sample is withdrawn and the percent inhibition of platelet aggregation, as compared to a blood sample taken before injection, is determined.

thrombotic disorders = assay: Treatment of thrombotic disorders in rats; type: in vivo, rat; conditions: aqueous suspension, e.g. 0.5 to 2.5 millimolar
Method: as §2

SMILES: CCOS(=O)OCC [diethyl sulphite]
- IC50 ([1]; stimulus: U-46619, rabbit PRP): 11 mM
- IC50 ([1]; stimulus: adenosine diphosphate (ADP), rabbit PRP): 35 mM
- IC50 ([1]; stimulus: arachidonic acid, rabbit PRP): 6.25 mM
- effectiveness in the treatment of hypertensive disorders (hypertensive disorders): effective
- percent inhibition of platelet aggregation (platelet aggregation; stimulus: ADP): 29%
- percent inhibition of platelet aggregation (platelet aggregation; stimulus: U-46619): 12%
- percent inhibition of platelet aggregation (platelet aggregation; stimulus: arachidonic acid): 0%
- effectiveness in the treatment of thrombotic disorders (thrombotic disorders): effective
